According to patent publication US20100216875A1, “METHODS OF TREATING ALZHEIMER'S DISEASE” (priority 2006, published 2010):
Read-outs that look alike come from different tables or passages of the source. Each block holds one compound with its values, some of them ahead of it. Peptide text beside a SMILES is read from it. * marks the point of attachment. Cbz = O=C(OCc1ccccc1)*

How the values were obtained:
[1] = system: endogenous β-secretase activity in regulated secretory vesicles; assay: endogenous β-secretase activity in isolated regulated secretory vesicles, monitored with Z-Val-Lys-Met-MCA; type: biochemical, bovine
Experimental: A high throughput screening (HTS) assay was developed to measure protease activity that cleaves the wild-type β-secretase cleavage site. The substrate Z-Val-Lys-Met-MCA mimics the wild-type β-secretase cleavage site upon cleavage between Met-MCA, which generates fluorescent MCA. The free MCA fluorescence provides sensitive and quantitative measurement of protease activity. This assay provides a rapid (30 minutes) and sensitive assay of activity for cleaving the wild-type β-secretase cleavage site of APP, expressed in majority of the AD population Specifically, the Z-Val-Lys-Met-MCA cleaving assay can be used to detect endogenous β-secretase activity in regulated secretory vesicles.
Isolation of regulated secretory vesicles, also known as chromaffin vesicles, from adrenal medullary tissue (bovine) was conducted by sucrose density gradient purification, as described previously (54-56, 58). Briefly, fresh bovine adrenal medulla (from 40 glands) was gently homogenized by a polytron (Brinkmann) in 200-250 ml ice-cold 0.32 M sucrose. The homogenate was centrifuged at 1500 rpm in a GSA rotor (Sorval centrifuge) for 20 minutes at 4° C. The supernatant was collected and centrifuged at 8000 rpm in a GSA rotor for 20 minutes at 4° C. to obtain a pellet of chromaffin vesicles. The pellet was washed 3 times in 0.32 M sucrose. […]

[2] = system: Aβ40 production from endogenous APP in regulated secretory vesicles isolated from chromaffin cells; assay: Aβ production from endogenous APP in isolated regulated secretory vesicles; type: biochemical, bovine; conditions: inhibitor 10 μM
Experimental: Regulated secretory vesicles isolated from chromaffin cells naturally produce Aβ from endogenous APP when incubated at 37° C. in vitro for several hours. These vesicles can be used as an in vitro screen for compounds that inhibit Aβ production. […] The effects of cathepsin B inhibitors, CA074 (10 μM, ♦) and CA074Me (10 μM, □), on the production of Aβ40 from endogenous APP in regulated secretory vesicles isolated from chromaffin cells was evaluated in time course studies. […] Each inhibitor was tested in triplicate; values represent x±sem (*statistically significant with p<0.05).
Cathepsin B compounds that were effective inhibitors of endogenous II-secretase activity were tested for inhibition of Aβ peptide production in regulated secretory vesicles. The effect of reversible cathepsin B compounds on production of Aβ40 and Aβ42 in isolated chromaffin vesicles was tested by incubating candidate inhibitors (at 10 μM) with lysed chromaffin vesicles under identical conditions as for the β-secretase assay for 8 hours. […] After incubation, Aβ40 and Aβ42 was measured by ELISA assays, as described for measurement of Aβ peptides in brain extracts. Each candidate inhibitor was assayed in triplicate.

[3] = biological target: T1, cathepsin B (Homo sapiens, UniProt P07858); assay: recombinant cathepsin B β-secretase assay (Z-VKM-MCA); type: biochemical; set-up: purchased; conditions: recombinant human cathepsin B (3.5 ng), Z-V-K-M-MCA substrate (100 μM); read-out: IC50 inhibitory concentration
Experimental: Peptide structures that inhibit cathepsin B β-secretase activity were used to develop small molecule AD drugs. A library of dipeptide aldehydes were screened for an inhibitory effect on the cathepsin B β-secretase activity using recombinant human cathepsin B (3.5 ng) cleavage of the Z-V-K-M-MCA substrate (100 μM).
The recombinant cathepsin B β-secretase assay occurs in a solution (100 μl total volume) consisting of H2O (20 μl), Na-Acetate (50 mM, pH 5.0), NaCl (100 mM), Z-VKM-MCA (100 μM), GSH (10 mM), EDTA (1 mM), and recombinant human cathepsin B (3.5 ng) and 2DMSO (2%). A dipeptide aldehyde was added to such solutions in varying amounts to determine the IC50. The reagents were generally commercially available or, in the case of the dipeptide aldehydes, custom synthesized. The assay was incubated at 37° C. for 45 minutes and the fluorescence was read using a spectrophotometer (365/450 nm excitation/emission). Assays were run in duplicate. Compounds that inhibited cathepsin B by 80-100% (at 10 μM) underwent dose-response testing at […] to 10 μM to determine potency, measured as IC50 values (determined by non-linear regression a analysis using Graphpad Prism). Compounds with IC50 values in the nanomolar range, up to 100 nM, were selected for further study.

[4] = biological target: cathepsin B purified from secretory vesicles (Bos taurus, UniProt P07688); assay: Z-Val-Lys-Met-MCA cleaving activity of purified cathepsin B; conditions: inhibitor 10 μM
[5] = system: brain Aβ; conditions: wild-type mice, icv 200 mg/kg/day; cited from earlier work
[6] = system: brain and synaptosomal Aβ; assay: guinea pig brain and synaptosome Aβ by ELISA after icv infusion; type: in vivo; conditions: icv 0.15 mg/kg/day, 30 days
Description: Guinea pig (gp) is a natural, non-transgenic model of human APP processing gpAPP is 98% homologous to human APP, contains the human wild-type β-secretase site, and gpAβ is identical to human Aβ. Brain synaptosome preparations are enriched with neuronal synapses which are the sites at which regulated secretion occurs and are an in vivo measure of regulated secretory secretion CTFβ is an APP fragment that results from p-secretase cleavage of APP and reflects in vivo β-secretase activity. […] E64d was icy administered into gp brains (0.15 mg/kg/day) for 7 or 30 days. […] In FIG. 5b, total synaptosomal Aβ is shown.
CA074Me (0.15 mg/kg/day) was icy infused into gp brains with mini pumps. […] An equal reduction of Aβ40 and Aβ42 is consistent with the inhibitor affecting p-secretase activity
At the end of the treatment, the brains were isolated and extracted with guanidine hydrochloride and Aβ40 and Aβ42 levels were determined using ELISA.
Cathepsin B inhibitors were administered directly into the brain by icy infusion with minipumps in time course studies at different doses. Guinea pigs were infused with compounds using Alzet pumps (2.5 μl/hr, with compounds at 1 mg/ml in saline) for 7 and 30 days, and other times. This initial dose of compound was selected because E64d and CA074Me are effective at this dose. Each treatment group consisted of eight to ten guinea pigs, including the vehicle control group.
At the end of each experiment, animals were sacrificed and half the brain was taken for ELISA measurement of Aβ40 and Aβ42 levels. The other half was isolated for synaptosome preparations for ELISA measurement of Aβ40 and Aβ42 content in nerve terminals. Synaptosomes were prepared by homogenization in isotonic sucrose (320 mM), pH 7.4, 1 mM EDTA, 0.25 mM dithiothreitol, and 30 U/MI RNAse inhibitor. The homogenate was centrifuged at 1000×g for 10 minutes. The supernatant was loaded on a Sucrose-Percoll discontinuous gradient and centrifuged at 32,000×g for 5 minutes (80) Enriched synaptosomes were washed in PBS, and centrifuged at 12,000×g for 4 minutes. The supernatant was removed, and the synaptosome containing pellet was resuspended in 50% OptiPrep (Accurate Chemica. Westbury, N.Y.), loaded on an OptiPrep discontinuous flotation gradient (9, 12.5, 25, and 35%) and centrifuged at 10,000×g for 20 minutes. The synaptosomes were obtained at the […]
For quantitative analysis of Aβ peptides, an enzyme-linked immunosorbent assay (ELISA) was used to measure the levels of total Aβ, Aβtotal, Aβ40 and Aβ42 in the brains and synaptosomes of guinea pigs (Biosource International, Camarillo, Calif.) Aβtotal, Aβ40, Aβ42 was extracted from guinea pig brains or from synaptosomes by guanidine hydrochloride and quantified as described by the manufacturer. This assay extracted the total Aβ peptide from the brain (both soluble and aggregated). Tissue samples were homogenized in 5M guanidine buffer (5M guanidine HCl in 50 mM Tris-Cl, pH 8.3; Sigma-Aldrich, St. Louis, Mo.) at 1:10 w/v dilution. Homogenates were agitated at room temperature for 3-4 hours, then stored at −20° C. The day before running the ELISA, the tissue samples were diluted further 1:10 to provide a final guanidine concentration of 0.5M. These diluted homogenates were spun down at 14,000 rpm for 20 minutes at 4° C. and supernatants used for Aβ determination by ELISA (84-86). Brain and synaptosome extracts were assayed as diluted in 0.5M guanidine. In addition, Aβ40 and Aβ42 were assayed using ELISA using 6E10 as the capture antibody and Rb209 and Rb321 as reporter antibodies, respectively, for Aβ40 and Aβ42 (96).

[7] = biological target: aspartyl protease, BACE1 (Homo sapiens, UniProt P56817); assay: effect on BACE1; type: biochemical
[8] = biological target: T1, cathepsin B; conditions: reference (4); read-out: IC50 for cathepsin B inhibition; cited from earlier work

aspartyl protease, BACE1, sequence (P56817 46-501): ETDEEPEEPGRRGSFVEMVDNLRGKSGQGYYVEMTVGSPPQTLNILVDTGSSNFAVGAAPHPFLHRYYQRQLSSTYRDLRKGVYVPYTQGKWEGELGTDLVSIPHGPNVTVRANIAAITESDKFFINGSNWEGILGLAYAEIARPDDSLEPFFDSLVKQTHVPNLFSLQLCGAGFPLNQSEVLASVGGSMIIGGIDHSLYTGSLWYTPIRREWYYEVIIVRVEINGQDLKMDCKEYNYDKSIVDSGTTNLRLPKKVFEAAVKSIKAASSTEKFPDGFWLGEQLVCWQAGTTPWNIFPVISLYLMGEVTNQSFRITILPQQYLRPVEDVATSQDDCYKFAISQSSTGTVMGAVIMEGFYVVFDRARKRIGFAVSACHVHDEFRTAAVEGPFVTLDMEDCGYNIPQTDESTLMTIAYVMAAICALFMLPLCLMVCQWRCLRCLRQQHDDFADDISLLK

Structure (SMILES): O=CC(CO)NC(=O)C(Cc1ccc(O)cc1)NC(=O)OCc1ccccc1 (stereo not drawn) [Z-YS-ald] (Cbz-Tyr-Ser-aldehyde; configuration not given here)
- IC50 [3]: 0.037 µM

Structure (SMILES): CC(=O)NCCCCC(C=O)NC(=O)C(CSC(=O)OCc1ccccc1)NC(=O)OCc1ccccc1 (stereo not shown) [Z-C(Z)K(Ac)-ald] (Cbz-Cys(Cbz)-Lys(Ac)-aldehyde; configuration not given here)
- IC50 [3]: 0.091 µM

Structure (SMILES): CC(C)C(C=O)NC(=O)C(Cc1ccc(O)cc1)NC(=O)OCc1ccccc1 (stereo not drawn) [Z-YV-ald] (Cbz-Tyr-Val-aldehyde; configuration not given here)
- IC50 [3]: 0.065 µM

Structure (SMILES): O=CC(CO)NC(=O)C(CCC(=O)NC(c1ccccc1)(c1ccccc1)c1ccccc1)NC(=O)OCc1ccccc1 (stereo not shown) [Z-Q(Trt)S-ald]
- IC50 [3]: 0.058 µM

Structure (SMILES): CC(C)C[C@H](NC(=O)[C@@H](NC(=O)[C@@H](N)CNC(=O)c1nn[nH]n1)C(C)C)C(=O)N[C@@H](Cc1ccccc1)[C@@H](O)C(=O)Nc1cc(C(=O)O)cc(C(=O)O)c1 [KMI-429]
- maximum reduction in brain Aβ [5]: 30-40%

Structure (SMILES): CC(=O)N[C@@H](CC(C)C)C(=O)N[C@H](C(=O)N[C@H](C=O)CCCCN)C(C)C [Ac-LVK-CHO, acetyl-L-leucyl-L-valyl-L-lysinal] (Ac-Leu-Val-Lys-aldehyde)
- reduction of Aβ40 in brain extracts [6]: about 70%
- reduction of Aβ42 in brain extracts [6]: ~60%
- effect on BACE1 [7]: do not affect
- IC50 [8]: 0.004 µM

Structure (SMILES): CC(=O)NCCCCC(C=O)NC(=O)C(NC(=O)OCc1ccccc1)C(C)C (stereo not shown) [Z-VK(Ac)-ald]
- IC50 [3]: 0.031 µM

Structure (SMILES): O=CC(CO)NC(=O)C(CSC(=O)OCc1ccccc1)NC(=O)OCc1ccccc1 (stereo not shown) [Z-C(Z)S-ald] (Cbz-Cys(Cbz)-Ser-aldehyde; configuration not given here)
- IC50 [3]: 0.067 µM

Now from value to compound, other results behind:

- inhibition of endogenous β-secretase activity in regulated secretory vesicles ([1]; inhibitor 1 μM): completed inhibited
Structure (SMILES): CCCNC(=O)[C@H]1O[C@@H]1C(=O)N[C@H](C(=O)N1CCC[C@H]1C(=O)O)[C@@H](C)CC [CA074]
- effect on Aβ production in isolated regulated secretory vesicles [2]: block Aβ production

- inhibition of endogenous β-secretase activity in regulated secretory vesicles ([1]; inhibitor 10 μM): completed inhibited
- inhibition of Z-Val-Lys-Met-MCA cleaving activity of cathepsin B [4]: completely inhibited
Structure (SMILES): CC(C)CCNC(=O)[C@H](CC(C)C)NC(=O)[C@H]1O[C@@H]1C(=O)O [E64c]
- effect on Aβ production in isolated regulated secretory vesicles [2]: inhibited
